Assay results published in the supplement of paper PMC10883282.

Tests used:
Assay in all cases: relative viability vs DMSO control (72 h) (fraction); higher = more viable cells
KHOS-240S = tested on: KHOS-240S
Method in brief: (§1)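 After seeding at densities set for 80–90% confluence in 384-well plates, sarcoma cell lines waited 24 h before 2.5 µl of serially diluted compound was added. Source plates held 10 mM down to 0.0002 mM. Plates were incubated 72 h at 37 °C with 5% CO2, with 0.1% DMSO vehicle and a 5 µM positive control, and relative viability was taken from ATPLite as percent growth averaged over up to triplicate wells, with 1 set as full and 0 as none.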

SW982 = tested on: SW982
Method in brief: as §1

HT1080 = tested on: HT1080
Method in brief: as §1

SW1353 = tested on: SW1353
Method in brief: as §1

RD-ES = tested on: RD-ES
Method in brief: as §1

COc1cc(OC)cc(N(CCNC(C)C)c2ccc3ncc(-c4cnn(C)c4)nc3c2)c1 [Erdafitinib]
relative viability
Conditions | HT1080 | KHOS-240S | RD-ES | SW982 | SW1353
0.00017 µM | 1.06 | 1.06 | 0.963 | 1.01 | 1.07
0.00051 µM | 1.09 | 1.05 | 0.971 | 0.997 | 1.01
0.00152 µM | 1.05 | 1.01 | 0.929 | 0.954 | 0.975
0.00457 µM | 1.07 | 0.999 | 0.96 | 0.992 | 0.889
0.01372 µM | 1.02 | 0.939 | 0.917 | 0.984 | 0.859
0.04115 µM | 1.05 | 0.828 | 0.873 | 0.958 | 0.853
0.1235 µM | 1.08 | 0.762 | 0.873 | 0.953 | 0.787
0.3704 µM | 1.06 | 0.713 | 0.861 | 0.888 | 0.781
1.111 µM | 1.02 | 0.643 | 0.783 | 0.544 | 0.745
3.333 µM | 0.959 | 0.521 | 0.5562 | 0.225 | 0.57
10 µM | 0.41 | 0.19 | 0.148 | 0.0452 | 0.0859

CN1CCN(CCOc2cc(OC3CCOCC3)c3c(Nc4c(Cl)ccc5c4OCO5)ncnc3c2)CC1 [Saracatinib]
relative viability
Conditions | HT1080 | KHOS-240S | RD-ES | SW982 | SW1353
0.00017 µM | 1.05 | 1.07 | 0.975 | 1.02 | 1.03
0.00051 µM | 1.04 | 1.08 | 1 | 1.09 | 0.988
0.00152 µM | 1.05 | 1.07 | 0.99 | 1.05 | 1.02
0.00457 µM | 1.01 | 1.07 | 1.01 | 1.06 | 0.996
0.01372 µM | 1.022 | 1.07 | 0.979 | 1.08 | 0.945
0.04115 µM | 1.02 | 1.08 | 0.982 | 1.08 | 0.929
0.1235 µM | 1.053 | 1.046 | 0.966 | 0.919 | 0.891
0.3704 µM | 1.04 | 0.934 | 0.935 | 0.739 | 0.843
1.111 µM | 1.01 | 0.802 | 0.898 | 0.568 | 0.7072
3.333 µM | 0.952 | 0.614 | 0.858 | 0.486 | 0.6847
10 µM | 0.859 | 0.451 | 0.735 | 0.442 | 0.666

CN(C)C[C@@H]1CCn2cc(c3ccccc32)C2=C(C(=O)NC2=O)c2cn(c3ccccc23)CCO1 [Ruboxistaurin]
relative viability
Conditions | HT1080 | KHOS-240S | RD-ES | SW982 | SW1353
0.00017 µM | 1.06 | 1.04 | 0.981 | 1.03 | 1.02
0.00051 µM | 1.1 | 1.05 | 0.993 | 1.03 | 1.01
0.00152 µM | 1.05 | 1.03 | 0.9893 | 1.04 | 0.983
0.00457 µM | 1.04 | 1.04 | 0.988 | 1.03 | 0.99
0.01372 µM | 1.05 | 1.02 | 0.952 | 1.05 | 0.975
0.04115 µM | 1.06 | 1.02 | 0.978 | 1.04 | 0.994
0.1235 µM | 1.08 | 1.03 | 0.956 | 1.04 | 0.961
0.3704 µM | 1.03 | 1.014 | 0.993 | 1.03 | 0.977
1.111 µM | 1.08 | 1.04 | 0.96 | 0.949 | 0.894
3.333 µM | 1.12 | 1.03 | 0.862 | 0.846 | 0.827
10 µM | 0.904 | 0.715 | 0.0404 | 0.349 | 0.252

CCCS(=O)(=O)N[C@H]1C[C@@H](N(C)c2ncnc3[nH]ccc23)C1 [Abrocitinib]
relative viability
Conditions | HT1080 | KHOS-240S | RD-ES | SW982 | SW1353
0.00017 µM | 1.026 | 1.03 | 0.988 | 1.03 | 0.96
0.00051 µM | 1.02 | 1.03 | 0.998 | 1.04 | 0.966
0.00152 µM | 1.046 | 1.03 | 0.985 | 1.04 | 0.929
0.00457 µM | 1.022 | 1.04 | 0.993 | 1.04 | 0.96
0.01372 µM | 1.05 | 1.04 | 1.02 | 1.02 | 1
0.04115 µM | 1.05 | 1.04 | 1.03 | 1.06 | 0.9632
0.1235 µM | 1.026 | 0.9912 | 1.03 | 1.07 | 0.977
0.3704 µM | 1.04 | 1.02 | 1.015 | 1.044 | 0.999
1.111 µM | 1.021 | 1.03 | 1.03 | 1.04 | 0.958
3.333 µM | 1.03 | 1.05 | 1.03 | 1.056 | 0.991
10 µM | 1.05 | 0.988 | 1.03 | 1.06 | 0.996

NC(=O)c1cnc2[nH]ccc2c1N[C@@H]1[C@@H]2CC3C[C@H]1C[C@@](O)(C3)C2 [Peficitinib]
relative viability
Conditions | HT1080 | KHOS-240S | RD-ES | SW982 | SW1353
0.00017 µM | 1.058 | 1.01 | 0.973 | 1.03 | 1.03
0.00051 µM | 1.05 | 1.05 | 0.99 | 1.03 | 1.05
0.00152 µM | 1.06 | 1.04 | 0.968 | 1.016 | 1.01
0.00457 µM | 1.03 | 1.05 | 0.963 | 1.03 | 1.012
0.01372 µM | 1.03 | 1.06 | 0.984 | 1.02 | 1.04
0.04115 µM | 1.06 | 1.07 | 0.981 | 1.05 | 1.07
0.1235 µM | 1.06 | 1.05 | 1 | 1.032 | 1.04
0.3704 µM | 1.11 | 1.04 | 1.01 | 0.986 | 1.08
1.111 µM | 1.22 | 1.03 | 1 | 0.934 | 1.09
3.333 µM | 1.35 | 0.837 | 0.986 | 0.751 | 1.09
10 µM | 1.29 | 0.498 | 0.227 | 0.397 | 0.988
